This note sets out measurements from US20260209249A1, “NOVEL TRICYCLIC COMPOUND AS KRAS G12D INHIBITOR, AND USE THEREOF” (SK Biopharmaceuticals Co., priority 2022, published 2026).

By IC50 is commonly meant the concentration that inhibits the measured activity by half.

Test [1] addresses T1, GDP-KRAS G12D mutant protein (Homo sapiens, UniProt P01116, G12D).
T1 construct: purchased Daegu Gyeongbuk Medical Innovation Foundation (DGMIF), made to order
Description: Differential scanning fluorimetry (DSF) binding affinity to GDP-KRAS G12D mutant protein. To be noted: DSF thermal shift, 10 μM compound, 4 μg KRAS protein. The method in brief:
(§1)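 Each sample held 4 μg recombinant KRAS G12D (GDP- or GppNHp-bound) and 10 μM compound, incubated 30 min at room temperature before adding 2× SYPRO Orange. The GDP form was run in kit buffer, the GppNHp form in 50 mM HEPES pH 7.5. Melt was 25–99 °C at 0.05 °C/s (580/623 nm), reported as ΔTm versus no compound.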
(Differential scanning fluorimetry follows unfolding on heating by fluorescence.)

For test [2], the target named is T2, GppNHp-KRAS G12D mutant protein (Homo sapiens, UniProt P01116, G12D).
T2 construct: purchased Daegu Gyeongbuk Medical Innovation Foundation (DGMIF), made to order
Description: Differential scanning fluorimetry (DSF) binding affinity to GppNHp-KRAS G12D mutant protein. The settings on record: DSF thermal shift, 10 μM compound, 4 μg KRAS protein, 50 mM HEPES (pH 7.5). The method in brief: as §1

Test [3] concerns ERK phosphorylation (pERK) induced by KRAS G12D mutation. Description: Inhibitory activity against ERK phosphorylation (pERK) induced by KRAS G12D mutation, immunofluorescence assay in AsPC-1 cells. To be noted: Homo sapiens, ASPC1, 3 h drug treatment, pERK (Thr202/Tyr204) signal normalized to DAPI. In kind it is cell-based. The text has this:
Test Example 2: Measurement of Inhibitory Activity Against ERK Phosphorylation (pERK) Induced by KRAS G12D Mutation (Immunofluorescence Assay)
Immunofluorescence is a method used to detect specific substances within cells or tissues through antigen-antibody interactions, and allows for the identification of the presence or absence of specific proteins by using antibodies labeled with various fluorescent dyes. After a primary antibody that recognizes a specific protein selectively binds to the epitope, a fluorescent antibody (secondary antibody) is bound to the primary antibody.
It was confirmed as follows that the compounds according to an embodiment of the present application inhibit phosphorylation of extracellular signal-regulated kinases (Phospho-ERK, pERK) induced by KRAS G12D mutation.
AsPC-1 cells were seeded at a density of 10,000 cells/well in RPMI-1640 medium containing 10% FBS and 1% Penicillin-Streptomycin in 384-well plates (Perkinelmer, #6057300) and allowed to attach for 16 h. After the cells attached to the plate, the cells were treated with drugs at a maximum concentration of 10 μM with a 3-fold serial dilution. After 3 h of drug treatment, the medium was removed and the cells were treated with 50 μL of 4% formaldehyde (Biosesang, #PC2031-050-00) for 20 min and washed three times with 50 μL of phosphate buffered saline (PBS).
50 μL of PBS containing 0.3% Triton X-100 (Sigma, #T8787-250 mL) was added and reacted for 20 minutes to allow antibody penetration into cells, and then the plate was washed three times with 50 μL of PBS. To block nonspecific binding of antibodies to the plate, 50 μL of PBS containing 2% BSA (sigma, #A7906-500G) and 0.01% Tween-20 (Sigma, #P1379-500 mL) (hereinafter referred to as PBS-T) was added, and reacted at room temperature for 2 hours.
To detect pERK, the primary antibody (cell signaling, #9101) was diluted 1:500 in PBS-T containing 2% BSA, 50 μL was added, and the plate was stored in a refrigerator at 4° C. for 16 hours to react, followed by washing three times with 50 μL of PBS-T. To visualize the primary antibody, the secondary antibody, i.e., anti-rabbit-Alexa Fluor 488 (ThermoFisher, #A11008), was diluted 1:1000 in PBS-T containing 2% BSA, 50 μL was added, and after reaction at room temperature for 1 hour, the plate was washed three times with 50 μL of PBS-T. Next, to visualize the nuclei of cells, DAPI (Thermofisher, #62248, 1 mg/mL) was diluted 1:1000 in PBS-T, 50 μL each was added, reacted at room temperature for 10 minutes, and washed three times with 50 μL of PBS-T. 50 μL of PBS-T was added to each well, and the plate was read for fluorescence value using HCS equipment (MOLECULAR DEVICES/ImageXpress Micro).
Data analysis was performed by normalizing the pERK (Thr202/Tyr204) signal to the DAPI signal and calculating the percentage relative to the DMSO as a control. The IC50 value was determined by fitting a four-parameter dose-response curve using the GraphPad Prism software (version 8.4.3), and interpolating the concentration at which 50% inhibition occurred. The results of calculating the inhibitory efficacy of the compounds according to one embodiment of the present application against KRAS G12D mutation-induced pERK activity are shown in Table 3.

Test [4] deals with KRAS G12D mutant pancreatic cancer cell line AsPC-1. Description: Cell viability assay using KRAS G12D mutant cells (AsPC-1, 3D culture, celltiter-glo 3D). Type of test: cell-based. The settings on record: Homo sapiens, ASPC1, 5th day after compound treatment. The method, then:
Test Example 3: Cell Viability Assay Using KRAS G12D Mutant Cells
The KRAS G12D mutant pancreatic cancer cell line AsPC-1 was obtained from the Korean Cell Line Bank (KCLB) and maintained in 100-mm dishes or T75 (75 cm^2) flasks using RPM11640+10% fetal bovine serum (FBS)+1% Penicillin-Streptomycin medium. The cells were cultured at 37° C. with 5% CO2. The number of viable cells was counted using Countess (Invitrogen).
When AsPC-1 cells reached 85-100% confluence in the flask, the cells were harvested using 1× trypsin/EDTA solution, and seeded into a 96-well plate for 3D culture at 1000 cells/100 μL/well. The next day, the compounds were diluted ⅕ with DMSO from 10 μM or 50 μM to 0.0001 μM or 0.0006 μM and treated 1:1 (v/v) in the plate where the cells were seeded.
Cell culture was terminated on the 5th day after compound treatment, and cell viability at each concentration was measured using the celltiter-glo 3D cell viability assay kit.
Cell viability assays were normalized to 100% for the DMSO-treated group and expressed as a percentage of the number of viable cells when treated with the compound.
Cell viability %=(average RLU of group treated with test substance−average RLU of untreated group)/(average RLU of group treated with DMSO−average RLU of untreated group)×100
The data were modeled using GraphPad Prism 9 (GraphPad Software) by applying a nonlinear regression curve fit with a four-parameter sigmoidal dose-response curve to determine cell viability as a function of compound concentration. The 50% inhibitory concentration (IC50) corresponds to the concentration at which the curve intersects the midpoint of cell viability. The results of the inhibitory effect of the compounds according to one embodiment of the present application on the viability of KRAS G12D mutant cells are presented in Table 4.

On to `CCc1c(F)ccc2cc(O)cc(-c3cc4nc(OC[C@@]56CCCN5C[C@H](F)C6)nc(N5C[C@H]6CC[C@@H](C5)N6)c4n4ccnc34)c12` [Example 1, 4-(1-((1 R,5S)-3,8-diazabicyclo[3.2.1]octan-3-yl)-3-(((2R,7aS)-2-fluorotetrahydro-1H-pyrrolizin-7a(5H)-yl)methoxy)imidazo[1′,2′:1,6]pyrido[3,2-d]pyrimidin-6-yl)-5-ethyl-6-fluoronaphthalen-2-ol], for which the “GDP-KRAS G12D (ΔTmD, ° C.)” value in test [1] is 10.05 °C. Also, the “GppNHp-KRAS G12D (ΔTmD, ° C.)” value in test [2] amounted to 4.27 °C. Further, the values for the IC50 in test [3] and in test [4] were 322 nM and 364 nM, respectively.

`C#Cc1c(F)ccc2cc(O)cc(-c3cc4nc(OC[C@@]56CCCN5C[C@H](F)C6)nc(N5C[C@H]6CC[C@@H](C5)N6)c4n4ccnc34)c12` [Example 2, 4-(1-((1 R,5S)-3,8-diazabicyclo[3.2.1]octan-3-yl)-3-(((2R,7aS)-2-fluorotetrahydro-1H-pyrrolizin-7a(5H)-yl)methoxy)imidazo[1′,2′:1,6]pyrido[3,2-d]pyrimidin-6-yl)-5-ethynyl-6-fluoronaphthalen-2-ol]: in test [1], the “GDP-KRAS G12D (ΔTmD, ° C.)” value was determined as 9.91 °C. Moreover, the “GppNHp-KRAS G12D (ΔTmD, ° C.)” value in test [2] was 5.61 °C. For the same molecule, the IC50 in test [3] worked out at 169 nM; in test [4], 226 nM.

On to `C#Cc1c(F)ccc2cc(O)cc(-c3cc4nc(OCC5(CN6CCOCC6)CC5)nc(N5C[C@H]6CC[C@@H](C5)N6)c4n4ccnc34)c12` [Example 7, 4-(1-((1 R,5S)-3,8-diazabicyclo[3.2.1]octan-3-yl)-3-((1-(morpholinomethyl)cyclopropyl)methoxy)imidazo[1′,2′:1,6]pyrido[3,2-d]pyrimidin-6-yl)-5-ethynyl-6-fluoronaphthalen-2-ol], for which, in test [1], the “GDP-KRAS G12D (ΔTmD, ° C.)” value stood at 8.57 °C. Besides, the “GppNHp-KRAS G12D (ΔTmD, ° C.)” value in test [2] was 3.24 °C. Besides, the IC50 amounted to 269 nM in test [3] and 109 nM in test [4].

`CCc1c(F)ccc2cc(O)cc(-c3c(F)c4nc(OC[C@@]56CCCN5C[C@H](F)C6)nc(N5C[C@H]6CC[C@@H](C5)N6)c4c4cc(C)oc34)c12` [Example 45, 4-(1-((1R,5S)-3,8-diazabicyclo[3.2.1]octan-3-yl)-5-fluoro-3-(((2R,7aS)-2-fluorotetrahydro-1H-pyrrolizin-7a(5H)-yl)methoxy)-8-methylfuro[3,2-n]quinazolin-6-yl)-5-ethyl-6-fluoronaphthalen-2-ol]: the 50% inhibitory concentration (IC50) worked out at 70 nM in test [3] and 37 nM in test [4].

In the case of `Cc1cc2c(o1)c(-c1cc(O)cc3ccc(F)c(F)c13)c(F)c1nc(OC[C@@]34CCCN3C[C@H](F)C4)nc(N3C[C@H]4CC[C@@H](C3)N4)c12` [Example 46, 4-(1-((1R,5S)-3,8-diazabicyclo[3.2.1]octan-3-yl)-5-fluoro-3-(((2R,7aS)-2-fluorotetrahydro-1H-pyrrolizin-7a(5H)-yl)methoxy)-8-methylfuro[3,2-n]quinazolin-6-yl)-5,6-difluoronaphthalen-2-ol], the IC50 in test [3] worked out at 45 nM; in test [4], 25 nM.

On to `C#Cc1c(F)ccc2cc(O)cc(-c3c(F)c4nc(OC[C@@]56CCCN5C[C@H](F)C6)nc(NCC5(N(C)C)CCC5)c4c4cc(C)oc34)c12` [Example 48, 4-(1-(((1-(dimethylamino)cyclobutyl)methyl)amino)-5-fluoro-3-(((2R,7aS)-2-fluorotetrahydro-1H-pyrrolizin-7a(5H)-yl)methoxy)-8-methylfuro[3,2-n]quinazolin-6-yl)-5-ethynyl-6-fluoronaphthalen-2-ol], for which the half-inhibitory concentration (IC50) in test [3] is 333 nM; in test [4], 136 nM.

Take `C#Cc1c(F)ccc2cc(O)cc(-c3c(F)c4nc(OCC5(CN6CC[C@@H](F)C6)CCC5)nc(N5C[C@H]6CC[C@@H](C5)N6)c4c4cn(C)nc34)c12` [Example 98, 4-(9-((1R,5S)-3,8-diazabicyclo[3.2.1]octan-3-yl)-5-fluoro-7-((1-(((R)-3-fluoropyrrolidin-1-yl)methyl)cyclobutyl)methoxy)-2-methyl-2H-pyrazolo[4,3-f]quinazolin-4-yl)-5-ethynyl-6-fluoronaphthalen-2-ol]: in test [1], the “GDP-KRAS G12D (ΔTmD, ° C.)” value was 11.43 °C. Moreover, the “GppNHp-KRAS G12D (ΔTmD, ° C.)” value in test [2] was 5.79 °C. Further, in test [4], the half-inhibitory concentration (IC50) amounted to 110 nM.

Regarding `C#Cc1c(F)ccc2cc(N)cc(-c3c(F)c4nc(OC[C@@]56CCCN5CC(=C(F)F)C6)nc(N5C[C@H]6CC[C@@H](C5)N6)c4c4cn(C)nc34)c12` [Example 99, 4-(9-((1R,5S)-3,8-diazabicyclo[3.2.1]octan-3-yl)-7-(((S)-2-(difluoromethylene)tetrahydro-1H-pyrrolizin-7a(5H)-yl)methoxy)-5-fluoro-2-methyl-2H-pyrazolo[4,3-f]quinazolin-4-yl)-5-ethynyl-6-fluoronaphthalen-2-amine], in test [1], the “GDP-KRAS G12D (ΔTmD, ° C.)” value was 11.13 °C. The “GppNHp-KRAS G12D (ΔTmD, ° C.)” value in test [2] came to 7.27 °C. This molecule gave an IC50 in test [4] of 27 nM.

On to `C#Cc1c(F)ccc2cc(O)cc(-c3c(F)c4nc(OC[C@]56CC(=C)CN5C[C@@H](F)C6)nc(N5C[C@H]6CC[C@@H](C5)N6)c4c4cn(C)nc34)c12` [Example 100, 4-(9-((1 R,5S)-3,8-diazabicyclo[3.2.1]octan-3-yl)-5-fluoro-7-(((2S,7aR)-2-fluoro-6-methylenetetrahydro-1H-pyrrolizin-7a(5H)-yl)methoxy)-2-methyl-2H-pyrazolo[4,3-n]quinazolin-4-yl)-5-ethynyl-6-fluoronaphthalen-2-ol], for which, in test [1], the “GDP-KRAS G12D (ΔTmD, ° C.)” value turned out to be 14.50 °C. The “GppNHp-KRAS G12D (ΔTmD, ° C.)” value in test [2] stood at 8.92 °C. Half-maximal inhibition in test [4] (IC50) was put at 29 nM.
